For experiment [1], the system named is breast cancer PDX Ma15169. Particulars: for tumor growth inhibition / therapeutic effect (in words): Ma15169 PDX, humanized NOG-EXL mice, treatment day 154-182; for T/C value (treated-to-control tumor volume) at the last day of the study: day 183, Paclitaxel 10 mg/kg i.v. twice weekly, treatment from day 154, 29 days; for response rating according to RECIST criteria: from T/C at day 183 (last day of the study). As for the experimental part: The study was designed to determine the response of the breast cancer PDX Ma15169 to treatment with Paclitaxel single agent, Balixafortide single agent and the combination of both in humanized NOG-EXL mice. Humanized NOG-EXL mice bearing the breast cancer PDX Ma15169 were treated with Paclitaxel and Balixafortide according to Table 1. Ma15169 is a patient derived xenograft (PDX) that was from a patient with an invasive ductal carcinoma (ypT1a ypN1a R0 G3 L1 V1). The patient tumour was ER/PR as well as Her-2 negative. The tumour material was expanded in 9 donor mice (NOG, Taconic; https://www.taconic.com/mouse-model/ciea-nog-mouse) and fragments of about 10 mm3 were each implanted subcutaneously into the flank of 50 humanized NOG-EXL mice; at this time, the passage number of Ma15169 was #4.
Female NOG-EXL mice with an age of about 4 weeks were used for the constitution of human immune cells. 24 hours before CD34+ cell inoculation mice were irradiated with 1Gy. Human CD34+ cells were isolated from fresh cord blood within the laboratories of EPO (Experimental Pharmacology & Oncology Berlin-Buch GmbH, Berlin-Buch, Germany) and preserved in liquid nitrogen until use. For the study MV16883 a pool of 5 different donors (CB AG 101, CB AG 97, CB KR 104, CB AG 106, CB AG 107) prepared. After thawing the cells were washed with PBS, pooled and washed again followed by Trypan blue staining and cell counting using Neubauer chamber. A total of 5×10^4 vital cells were resuspended in 200 μl PBS and injected intravenously into the tail vain of all mice.
Determination of human immune cells by FACS was performed at days 46, 84 and 115 after cell inoculation (leucocytes CD45+, B cells CD19+, T cells CD3+, NK cells CD56+/CD16+ and monocytes CD14+; Human Immunophenotyping 8-color-Kit (Miltenyi)). The mice were weighed weekly and monitored for general health two times weekly.
The PDX Ma15169 is maintained by EPO (Experimental Pharmacology & Oncology Berlin-Buch GmbH, Berlin-Buch, Germany) as in vivo passage; the passage number for this study was #4. Donor mice (female NOG; Taconic) with tumors of about 1 cm3 were used for the preparation of this study MV16883.
After removal of the tumor tissue from donor mice, the tumors were cut into fragments (2-3 mm diameter—approximately 10 mm3) and placed in cooled RPMI 1640 culture medium until s.c. implantation within 30 minutes. The humanized NOG-EXL mice were anaesthetized with Etomidate and received a small incision in the skin of the left flank. The tumor fragments (one fragment/mouse) were implanted with tweezers and the incision closed with a suture clip (#310417, Covetrus GmbH). The clips were removed after seven days and mice controlled two times weekly by means of palpation. The implantation of tumor fragments was performed 122 days after the inoculation of CD34+ cells.
Tumor bearing mice were stratified into 4 treatment groups according to their tumor volumes at day 154 post CD34+ cell inoculation (32 days after tumor implantation). […] During stratification the animals were individually marked by earmarks.
Paclitaxel (Taxomedac™ comprising paclictaxel, citric acid, ethanol and PEG (30-50) castor oil) was given i.v. at a dose of 10 mg/kg twice weekly. Balixafortide was given s.c. at a dose of 20 mg/kg once daily for the first 5 days and twice daily for 5 days followed by treatment breaks of 2 days until the end of treatment period (FIG. 1). Total treatment duration was 29 days. Successful engraftment of human CD34+ cells was checked by flow cytometry (FACS).
Changes in the human immune cell population in blood were followed-up at the end of the study by FACS analysis.

A further experiment has as its target human CXCR4 receptor (Homo sapiens, UniProt P61073). The experiment in a line: In vitro receptor binding studies, human CXCR4 receptor.
The subject of experiment [2] is other potential target receptors. Description: In vitro receptor binding studies, other receptors.

Sequence of human CXCR4 receptor (P61073 whole entry): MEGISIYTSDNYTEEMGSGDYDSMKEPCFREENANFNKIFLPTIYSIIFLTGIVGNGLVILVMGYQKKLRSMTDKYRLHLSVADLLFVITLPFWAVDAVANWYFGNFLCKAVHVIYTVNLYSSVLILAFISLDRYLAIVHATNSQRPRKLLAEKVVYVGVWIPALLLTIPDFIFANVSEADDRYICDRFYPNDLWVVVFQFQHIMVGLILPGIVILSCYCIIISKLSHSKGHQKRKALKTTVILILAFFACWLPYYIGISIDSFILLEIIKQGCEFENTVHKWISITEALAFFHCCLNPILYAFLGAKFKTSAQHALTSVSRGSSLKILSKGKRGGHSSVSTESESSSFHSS

Take `CC(=O)O[C@H]1C(=O)[C@@]2(C)[C@H]([C@H](OC(=O)c3ccccc3)[C@]3(O)C[C@H](OC(=O)[C@H](O)[C@@H](NC(=O)c4ccccc4)c4ccccc4)C(C)=C1C3(C)C)[C@]1(OC(C)=O)CO[C@@H]1C[C@@H]2O` [Paclitaxel, reference compound]: in experiment [1], the “tumor growth inhibition / therapeutic effect (in words)” value is on record as “significant tumor growth inhibition” and the “response rating according to RECIST criteria” value is “stable disease”. Further, the “T/C value (treated-to-control tumor volume) at the last day of the study” value in experiment [1] (Balixafortide 20 mg/kg s.c.) is listed as 42%.

“Cyclo(-Tyr-His-Ala-Cys-Ser-Ala-^DPro-Dab-Arg-Tyr-Cys-Tyr-Gln-Lys-^DPro-Pro-) having a disulfide bond between Cys^4 and Cys^11 [Balixafortide]”: in experiment [1], the “tumor growth inhibition / therapeutic effect (in words)” value is on record as “inhibited tumor growth marginally” and the “response rating according to RECIST criteria” value is “progressive disease”. Also, in experiment [1] (Balixafortide 20 mg/kg s.c.), the “T/C value (treated-to-control tumor volume) at the last day of the study” value amounted to 107%. The “optimum T/C value” in experiment [1] (found at day 168, Balixafortide 20 mg/kg s.c., p>0.05) was 79%. For the same compound, on human CXCR4 receptor, the “affinity for the human CXCR4 receptor (in words)” value is listed as “significant affinity”. Moreover, the “binding to other potential target receptors (in words)” value in experiment [2] was “general lack of significant binding”.

The values are drawn from patent US20240009266A1, “PHARMACEUTICAL COMBINATIONS COMPRISING A PEPTIDE CXCR4 INHIBITOR AND A TAXANE FOR TREATING CANCER” (POLYPHOR AG, priority 2020, published 2024).
